In ChEMBL document CHEMBL3352432, “Synthesis and biological evaluation of 2-anilino-4-substituted-7H-pyrrolopyrimidines as PDK1 inhibitors” (Bioorg Med Chem, 2014):

These compounds were tested against T1, 3-phosphoinositide-dependent protein kinase 1 (Homo sapiens) (UniProt O15530) (assay: Inhibition of PDK1 (unknown origin) expressed in HEK293 cells using PDKtide as substrate at 10 uM after 10 mins by liquid scintillation counting in presence of [gamma-32P]ATP).
T1 sequence (whole entry): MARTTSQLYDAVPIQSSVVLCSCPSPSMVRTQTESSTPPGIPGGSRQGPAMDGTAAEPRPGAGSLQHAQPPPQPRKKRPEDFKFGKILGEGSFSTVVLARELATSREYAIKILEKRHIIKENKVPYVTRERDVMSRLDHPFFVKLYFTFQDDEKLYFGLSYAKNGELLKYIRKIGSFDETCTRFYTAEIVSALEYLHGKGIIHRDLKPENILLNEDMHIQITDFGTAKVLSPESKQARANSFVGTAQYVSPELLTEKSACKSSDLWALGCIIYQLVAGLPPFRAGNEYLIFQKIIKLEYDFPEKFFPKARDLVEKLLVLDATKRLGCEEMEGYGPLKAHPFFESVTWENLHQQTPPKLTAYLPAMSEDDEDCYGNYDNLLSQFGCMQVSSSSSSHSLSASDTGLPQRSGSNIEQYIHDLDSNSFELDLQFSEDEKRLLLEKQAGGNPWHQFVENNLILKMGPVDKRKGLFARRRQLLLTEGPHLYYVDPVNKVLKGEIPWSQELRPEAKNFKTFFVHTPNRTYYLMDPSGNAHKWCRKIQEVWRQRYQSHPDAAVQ
Compound `O=C(Nc1cccc(Nc2nc(-c3ccccc3)c3cc[nH]c3n2)c1)N1CCCC1` has an inhibition of 59%.
Compound `O=C(Nc1cccc(Nc2nc(-c3cccc(OCc4cccnc4)c3)c3cc[nH]c3n2)c1)N1CCCC1` has an inhibition of 46%.
In the case of `COc1ccc(-c2nc(Nc3cccc(NC(=O)N4CCCC4)c3)nc3[nH]ccc23)cc1`, the inhibition is reported as 70%.
With `COc1cccc(-c2nc(Nc3cccc(NC(=O)N4CCCC4)c3)nc3[nH]ccc23)c1` the inhibition was 48%.
Work on `COc1cc(-c2nc(Nc3cccc(NC(=O)N4CCCC4)c3)nc3[nH]ccc23)cc(OC)c1OC` yielded an inhibition of 36%.
`COc1ccc(-c2nc(Nc3cccc(NC(=O)N4CCCC4)c3)nc3[nH]ccc23)cc1OC` was tested, and the inhibition was 65%.
`COc1ccc(Nc2nc(Nc3cccc(NC(=O)N4CCCC4)c3)nc3[nH]ccc23)cc1` showed an inhibition of 45%.
For `COc1ccc(Oc2nc(Nc3cccc(NC(=O)N4CCCC4)c3)nc3[nH]ccc23)cc1`, the inhibition was 65%.
In the case of `O=C(Nc1cccc(Nc2nc(Nc3ccccc3)c3cc[nH]c3n2)c1)N1CCCC1`, the inhibition is reported as 46%.
Compound `COc1nc(Nc2cccc(NC(=O)N3CCCC3)c2)nc2[nH]ccc12` has an inhibition of 90%.
`O=C(Nc1cccc(Nc2nc(-c3ccc4c(c3)OCO4)c3cc[nH]c3n2)c1)N1CCCC1` was tested, and the inhibition was 61%.

These compounds were tested against T2, 3-phosphoinositide-dependent protein kinase 1 (Homo sapiens, UniProt O15530) (assay: Inhibition of PDK1 (unknown origin) expressed in HEK293 cells using PDKtide as substrate after 10 mins by liquid scintillation counting in presence of [gamma-32P]ATP).
T2 sequence (O15530 whole entry): T1 sequence (whole entry)
Compound `COc1ccc(-c2nc(Nc3cccc(NC(=O)N4CCCC4)c3)nc3[nH]ccc23)cc1` has an IC50 of 4.9 µM.
For `COc1nc(Nc2cccc(NC(=O)N3CCCC3)c2)nc2[nH]ccc12`, the IC50 was 1.2 µM.
